Data published in article PMC3237899 (2011).

What was measured:
[1] = target: Jak2-V617F (Homo sapiens, UniProt O60674, V617F); assay: in vitro kinase assay with recombinant protein, autophosphorylation; type: biochemical
[2] = target: Jak2 wild type (Homo sapiens, UniProt O60674); assay: as above; type: biochemical
Chain of Jak2 wild type (O60674 whole entry): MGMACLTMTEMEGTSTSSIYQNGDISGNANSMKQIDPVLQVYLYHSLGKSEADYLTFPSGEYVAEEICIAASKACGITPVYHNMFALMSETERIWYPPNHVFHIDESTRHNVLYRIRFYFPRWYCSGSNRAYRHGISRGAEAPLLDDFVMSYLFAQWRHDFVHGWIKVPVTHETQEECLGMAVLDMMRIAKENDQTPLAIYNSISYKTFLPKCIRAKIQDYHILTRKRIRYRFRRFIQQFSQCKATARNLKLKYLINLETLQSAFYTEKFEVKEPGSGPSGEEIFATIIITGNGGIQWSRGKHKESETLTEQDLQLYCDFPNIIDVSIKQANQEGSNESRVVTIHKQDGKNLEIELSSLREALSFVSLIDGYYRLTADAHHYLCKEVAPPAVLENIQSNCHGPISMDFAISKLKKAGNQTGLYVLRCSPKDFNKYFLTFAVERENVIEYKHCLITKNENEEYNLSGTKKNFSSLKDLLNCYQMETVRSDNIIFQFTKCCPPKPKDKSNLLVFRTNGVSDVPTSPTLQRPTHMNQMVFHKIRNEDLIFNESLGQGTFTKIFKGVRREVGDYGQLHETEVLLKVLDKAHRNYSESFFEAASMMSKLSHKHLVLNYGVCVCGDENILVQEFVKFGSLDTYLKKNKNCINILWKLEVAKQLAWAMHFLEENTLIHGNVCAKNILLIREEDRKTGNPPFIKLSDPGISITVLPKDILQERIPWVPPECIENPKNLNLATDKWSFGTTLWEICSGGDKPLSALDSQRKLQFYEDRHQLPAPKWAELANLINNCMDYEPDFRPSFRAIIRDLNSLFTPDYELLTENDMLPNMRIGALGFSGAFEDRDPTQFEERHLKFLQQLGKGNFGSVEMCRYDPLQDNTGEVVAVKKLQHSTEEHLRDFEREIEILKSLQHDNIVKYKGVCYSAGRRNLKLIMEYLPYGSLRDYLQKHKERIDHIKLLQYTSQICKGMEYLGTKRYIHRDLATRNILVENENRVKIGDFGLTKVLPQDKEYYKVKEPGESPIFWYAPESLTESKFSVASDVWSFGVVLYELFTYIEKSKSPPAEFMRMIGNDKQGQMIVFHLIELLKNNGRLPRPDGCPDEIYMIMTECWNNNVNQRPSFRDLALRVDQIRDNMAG

Chain of Jak2-V617F (O60674 545-1132 V617F limits assumed): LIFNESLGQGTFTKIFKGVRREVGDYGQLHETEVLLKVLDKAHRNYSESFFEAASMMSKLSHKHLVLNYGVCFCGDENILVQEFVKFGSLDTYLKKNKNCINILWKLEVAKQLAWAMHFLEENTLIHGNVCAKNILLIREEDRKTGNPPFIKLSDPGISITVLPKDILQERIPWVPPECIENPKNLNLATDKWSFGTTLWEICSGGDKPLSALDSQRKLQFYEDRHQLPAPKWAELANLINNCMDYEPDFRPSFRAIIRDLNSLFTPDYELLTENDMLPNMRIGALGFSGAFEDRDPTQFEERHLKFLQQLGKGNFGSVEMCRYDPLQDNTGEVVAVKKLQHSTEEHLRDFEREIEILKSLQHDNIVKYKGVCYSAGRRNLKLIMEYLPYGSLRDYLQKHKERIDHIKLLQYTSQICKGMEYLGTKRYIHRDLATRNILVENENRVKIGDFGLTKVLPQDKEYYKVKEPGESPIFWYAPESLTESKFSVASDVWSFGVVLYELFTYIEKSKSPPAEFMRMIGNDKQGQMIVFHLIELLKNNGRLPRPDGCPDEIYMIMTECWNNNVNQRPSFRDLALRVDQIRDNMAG

Q: What does the source list for `CN(C)c1ccc(C(O)c2cc3ccccc3s2)cc1` (centres unmarked) [A46, 1-benzothiophen-2-yl-(4-dimethylaminophenyl)methanol]?
A: IC50 [1]: ~0.1 µM; IC50 [2]: ~1 µM
